# Tests used:
# [1] = tested on: 4T1 breast cancer brain metastases; experiment: Orthotopic breast cancer brain metastases (BCBM) model; format: in vivo, BALB/C mice; settings: compared to the control group
# Description: Breast Cancer Brain Metastases (BCBM). To generate primary breast rumors prior to BCBM, 4T1 cells (3×10^5 cells/100 μl) were inoculated orthotopically into the mammary fat pad of immunocompetent BALB/C mice. Seven days later, primary lesions were resected. One week post primary tumor resection, 4T1 cells (2×10^4 cells/2 μl) were intracranially inoculated stereotactically to the striatum of the same mice (previously bearing the primary tumors). […] Mice body weight change was monitored three times a week, and tumor growth was followed using 4.7T/1H magnetic resonance imaging (MRI, MR Solutions, UK). PBMCs activation.
# MDA-MB-231 spheroids = experiment: Breast cancer 3D tumor spheroids; settings: BC cells alone or with astrocytes, microglia and PBMCs
# Description: Multicellular tumor spheroids (MCTS). MCTS were prepared using the hanging-drop method as previously shown (24). […] The sprouting of MCTS was analyzed using ImageJ 1.52v software, and the results were presented as total area covered or % of total area covered per spheroid (pixel density) per well.
# The plates were incubated for 7 days at 37° C. in 5% CO2 and cell fluorescence was followed and quantified by Cytation™ C10.
# 131/4-5B1 melanoma cells = experiment: Wound healing migration assay; format: cell-based, human; settings: vs cells in astrocytes SFM
# Description: (§1) Wound Healing Assay. To study the role of MCP-1 in mediating melanoma cells migration, (WM115 and 131/4-5B1 cells) (5×10^4 cells/well) were plated onto 96-well ImageLock tissue culture plate and allowed to grow until confluence. Next, a wound was created in each well using a 96-pin wound-making tool (WoundMaker, Essen BioScience, Sartorius, USA), and dislodged cells were washed with PBS. Melanoma cells were treated for 48 h with astrocytes CM, human astrocytes CM treated with siRNA:PEI polyplexes (500 nM siRNA targeting MCP-1 or scramble siRNA), astrocytes CM supplemented with 10 µg/mL anti-MCP-1 neutralizing antibody, astrocytes SFM supplemented with 1 μg/mL rh/mMCP-1. To monitor wound closure, the plate was placed in the IncuCyte™ ZOOM Live Cell Imaging system (Essen Bioscience, Sartorius, USA) and phase contrast images were taken every 2 h intervals over a course of 48 h using 10× objective. Results were calculated by the IncuCyte™ Software and presented as relative wound density (relative to the background density of the wound at time 0).
# WM115 melanoma cells = experiment: Wound healing migration assay; format: cell-based, human; settings: vs cells in astrocytes SFM
# Description: as §1
# MDA-MB-231 cells = experiment: Breast cancer Transwell migration; settings: vs control
# [2] = tested on: melanoma cells (D4M.3A, B16-F10, A375, 131/4-5B1 and WM115); experiment: Transwell migration of melanoma cells towards bindarit-treated astrocytes; settings: addition of rh-MCP-1; p=0.006 (astrocytes), p=0.115 (CM)
# Description: Transwell® Migration Assay. […] In order to assess melanoma migration in co-culture with astrocytes, human astrocytes (1×10^5 cells/well) or murine astrocytes (2×10^5 cells/well) were seeded in the lower chambers of the Transwell® inserts. […] All migrated cells were then fixed and stained (Hema 3 Stain System; Fisher Diagnostics, fixed and stained (Hema 3 Stain System; Fisher Diagnostics, USA). The stained migrated cells were imaged using EVOS FL Auto microscope (Life Technologies, USA) using 10× objective, brightfield illumination.
Compound,systemic disease relapse (primary tumor recurrence or extracranial metastases) [1],spheroid size (MDA-MB-231 spheroids),increase of melanoma cell migration (wound healing) (131/4-5B1 melanoma cells),increase of melanoma cell migration (wound healing) (WM115 melanoma cells),MDA-MB-231 migration towards MCP-1 recombinant protein (MDA-MB-231 cells),rescue of melanoma cell migration in presence of bindarit-treated astrocytes [2]
"COc1ccc(C2CC(c3c(O)cc(C)oc3=O)=NCCS2)c(OC)c1 (stereo not drawn) [SELPi, 3-[7-(2,4-Dimethoxyphenyl)-2,3,6,7-tetrahydro-1,4-thiazepin-5-yl]-4-hydroxy-6-methyl-2H-pyran-2-one]",did not show any improvement in relapse,significant decrease,,,,
rh-MCP-1: Recombinant human/murine MCP-1,,,27%,5%,migrated more,rescued the inhibition of melanoma cell migration

# From patent publication US20250179166A1, “TREATMENT OF BRAIN METASTASIS” (Ramot at Tel-Aviv University Ltd., priority 2022, published 2025)
